Measurements from ChEMBL document CHEMBL3885861, “Open TG-GATES”.

Organism: Rattus norvegicus
Assay: Open TG-GATES - Regimen: Single
Format: toxicity, organism-based, Sprague-Dawley
Parameters: regimen Single, gender Male, age 6 weeks
Settings: in vivo, po, route gavage; for Hb / Ht / Lym / MCHC / MCV / Mono / Neu / PT / Plat / RBC / Ret / WBC / APTT / Bas / Eos / Fbg: tissue Blood; for KIDNEY_L / KIDNEY_R / KIDNEY_TOTAL: tissue Kidney; for LIVER: tissue Liver; for ALP / ALT / AST / BUN / CRE / Ca / Cl / DBIL / IP / LDH / Na / PL / RALB / TBIL / TC / TG / TP / gamma-GTP / GLC: tissue Plasma
[1] = 120 mg/kg, 3 h, dose level Middle

Work on `CC(C)N(CCC(C(N)=O)(c1ccccc1)c1ccccn1)C(C)C` (centres undefined) [DISOPYRAMIDE] yielded a Hb (40 mg/kg, 3 h, dose level Low) of 13 g/dL, a Ht (40 mg/kg, 3 h, dose level Low) of 40.8% and a Lym (40 mg/kg, 3 h, dose level Low) of 79.6%. For the same molecule, the MCHC (40 mg/kg, 3 h, dose level Low) was 32%, the MCV (40 mg/kg, 3 h, dose level Low) was 64.4 fL and the Mono (40 mg/kg, 3 h, dose level Low) was 2.6%. The Neu (40 mg/kg, 3 h, dose level Low) was 15.8%, the PT (40 mg/kg, 3 h, dose level Low) was 15.5 s and the Plat (40 mg/kg, 3 h, dose level Low) was 122.4 x10_4/uL. The RBC (40 mg/kg, 3 h, dose level Low) was 633.6 x10_4/ul, the Ret (40 mg/kg, 3 h, dose level Low) was 8.2% and the WBC (40 mg/kg, 3 h, dose level Low) was 102.4 x10_2/uL. It also gave a KIDNEY_L (40 mg/kg, 3 h, dose level Low) of 0.9 g, a KIDNEY_R (40 mg/kg, 3 h, dose level Low) of 1 g and a KIDNEY_TOTAL (40 mg/kg, 3 h, dose level Low) of 1.9 g. The LIVER (40 mg/kg, 3 h, dose level Low) was 9.9 g, the ALP (40 mg/kg, 3 h, dose level Low) was 1280.4 IU/L and the ALT (40 mg/kg, 3 h, dose level Low) was 48.2 IU/L. The AST (40 mg/kg, 3 h, dose level Low) was 73.2 IU/L, the BUN (40 mg/kg, 3 h, dose level Low) was 10.6 mg/dL and the CRE (40 mg/kg, 3 h, dose level Low) was 0.2 mg/dL. The Ca (40 mg/kg, 3 h, dose level Low) was 10.7 mg/dL, the Cl (40 mg/kg, 3 h, dose level Low) was 107.4 meq/L and the DBIL (40 mg/kg, 3 h, dose level Low) was 0 mg/dL. For the same molecule, the IP (40 mg/kg, 3 h, dose level Low) was 8.5 mg/dL, the LDH (40 mg/kg, 3 h, dose level Low) was 163.4 IU/L and the Na (40 mg/kg, 3 h, dose level Low) was 140.8 meq/L. For the same molecule, the PL (40 mg/kg, 3 h, dose level Low) was 143.2 mg/dL, the RALB (40 mg/kg, 3 h, dose level Low) was 3 g/dL and the TBIL (40 mg/kg, 3 h, dose level Low) was 0.002 mg/dL. The TC (40 mg/kg, 3 h, dose level Low) was 82.4 mg/dL, the TG (40 mg/kg, 3 h, dose level Low) was 60.6 mg/dL and the TP (40 mg/kg, 3 h, dose level Low) was 5.5 g/dL. It also gave a gamma-GTP (40 mg/kg, 3 h, dose level Low) of 1.6 IU/L, a TERMINAL_BW (40 mg/kg, 6 h, dose level Low) of 212.3 g and an APTT (40 mg/kg, 6 h, dose level Low) of 21.2 s. For the same molecule, the Bas (40 mg/kg, 6 h, dose level Low) was 0%, the Eos (40 mg/kg, 6 h, dose level Low) was 0.6% and the Fbg (40 mg/kg, 6 h, dose level Low) was 307.6 mg/dL. The Hb (40 mg/kg, 6 h, dose level Low) was 13 g/dL, the Ht (40 mg/kg, 6 h, dose level Low) was 40.9% and the Lym (40 mg/kg, 6 h, dose level Low) was 80.6%. It also gave an MCHC (40 mg/kg, 6 h, dose level Low) of 31.8%, an MCV (40 mg/kg, 6 h, dose level Low) of 64.3 fL and a Mono (40 mg/kg, 6 h, dose level Low) of 2.4%. It also gave a Neu (40 mg/kg, 6 h, dose level Low) of 15.8%, a PT (40 mg/kg, 6 h, dose level Low) of 15.5 s and a Plat (40 mg/kg, 6 h, dose level Low) of 119.9 x10_4/uL. It also gave an RBC (40 mg/kg, 6 h, dose level Low) of 635.8 x10_4/ul, a Ret (40 mg/kg, 6 h, dose level Low) of 8.1% and a WBC (40 mg/kg, 6 h, dose level Low) of 80.4 x10_2/uL. For the same molecule, the KIDNEY_L (40 mg/kg, 6 h, dose level Low) was 1 g, the KIDNEY_R (40 mg/kg, 6 h, dose level Low) was 1 g and the KIDNEY_TOTAL (40 mg/kg, 6 h, dose level Low) was 2 g. The LIVER (40 mg/kg, 6 h, dose level Low) was 9.3 g, the ALP (40 mg/kg, 6 h, dose level Low) was 1258.6 IU/L and the ALT (40 mg/kg, 6 h, dose level Low) was 40 IU/L. It also gave an AST (40 mg/kg, 6 h, dose level Low) of 71.2 IU/L, a BUN (40 mg/kg, 6 h, dose level Low) of 12.4 mg/dL and a CRE (40 mg/kg, 6 h, dose level Low) of 0.1 mg/dL. It also gave a Ca (40 mg/kg, 6 h, dose level Low) of 10.8 mg/dL, a Cl (40 mg/kg, 6 h, dose level Low) of 106.2 meq/L and a DBIL (40 mg/kg, 6 h, dose level Low) of 0 mg/dL. The GLC (40 mg/kg, 6 h, dose level Low) was 168.6 mg/dL, the IP (40 mg/kg, 6 h, dose level Low) was 9.5 mg/dL and the LDH (40 mg/kg, 6 h, dose level Low) was 161.8 IU/L. For the same molecule, the Na (40 mg/kg, 6 h, dose level Low) was 140 meq/L, the PL (40 mg/kg, 6 h, dose level Low) was 132.2 mg/dL and the RALB (40 mg/kg, 6 h, dose level Low) was 3 g/dL. For the same molecule, the TBIL (40 mg/kg, 6 h, dose level Low) was 0.008 mg/dL, the TC (40 mg/kg, 6 h, dose level Low) was 75 mg/dL and the TG (40 mg/kg, 6 h, dose level Low) was 75.8 mg/dL. For the same molecule, the TP (40 mg/kg, 6 h, dose level Low) was 5.4 g/dL, the gamma-GTP (40 mg/kg, 6 h, dose level Low) was 1 IU/L and the TERMINAL_BW (40 mg/kg, 9 h, dose level Low) was 203.3 g. The APTT (40 mg/kg, 9 h, dose level Low) was 21.6 s, the Bas (40 mg/kg, 9 h, dose level Low) was 0% and the Eos (40 mg/kg, 9 h, dose level Low) was 0.6%. For the same molecule, the Fbg (40 mg/kg, 9 h, dose level Low) was 328.4 mg/dL, the Hb (40 mg/kg, 9 h, dose level Low) was 13 g/dL and the Ht (40 mg/kg, 9 h, dose level Low) was 40.3%. The Lym (40 mg/kg, 9 h, dose level Low) was 77.6%, the MCHC (40 mg/kg, 9 h, dose level Low) was 32.3% and the MCV (40 mg/kg, 9 h, dose level Low) was 64 fL. For the same molecule, the Mono (40 mg/kg, 9 h, dose level Low) was 2%, the PT (40 mg/kg, 9 h, dose level Low) was 15.6 s and the Plat (40 mg/kg, 9 h, dose level Low) was 124.6 x10_4/uL. For the same molecule, the RBC (40 mg/kg, 9 h, dose level Low) was 630.4 x10_4/ul, the Ret (40 mg/kg, 9 h, dose level Low) was 7.9% and the WBC (40 mg/kg, 9 h, dose level Low) was 88.7 x10_2/uL. For the same molecule, the KIDNEY_L (40 mg/kg, 9 h, dose level Low) was 0.9 g, the KIDNEY_R (40 mg/kg, 9 h, dose level Low) was 1 g and the KIDNEY_TOTAL (40 mg/kg, 9 h, dose level Low) was 1.9 g. The LIVER (40 mg/kg, 9 h, dose level Low) was 8.7 g, the ALP (40 mg/kg, 9 h, dose level Low) was 1420.4 IU/L and the ALT (40 mg/kg, 9 h, dose level Low) was 34.2 IU/L. It also gave an AST (40 mg/kg, 9 h, dose level Low) of 68.6 IU/L, a BUN (40 mg/kg, 9 h, dose level Low) of 12.4 mg/dL and a CRE (40 mg/kg, 9 h, dose level Low) of 0.1 mg/dL. For the same molecule, the Ca (40 mg/kg, 9 h, dose level Low) was 10.8 mg/dL, the Cl (40 mg/kg, 9 h, dose level Low) was 107.2 meq/L and the DBIL (40 mg/kg, 9 h, dose level Low) was 0 mg/dL. The GLC (40 mg/kg, 9 h, dose level Low) was 169.6 mg/dL, the IP (40 mg/kg, 9 h, dose level Low) was 9.5 mg/dL and the LDH (40 mg/kg, 9 h, dose level Low) was 151.6 IU/L. It also gave a Na (40 mg/kg, 9 h, dose level Low) of 140.8 meq/L, a PL (40 mg/kg, 9 h, dose level Low) of 129.4 mg/dL and an RALB (40 mg/kg, 9 h, dose level Low) of 3.1 g/dL. The TBIL (40 mg/kg, 9 h, dose level Low) was 0.008 mg/dL, the TC (40 mg/kg, 9 h, dose level Low) was 75.4 mg/dL and the TG (40 mg/kg, 9 h, dose level Low) was 58.2 mg/dL. For the same molecule, the TP (40 mg/kg, 9 h, dose level Low) was 5.5 g/dL, the gamma-GTP (40 mg/kg, 9 h, dose level Low) was 1.2 IU/L and the TERMINAL_BW (40 mg/kg, 24 h, dose level Low) was 217.8 g. The APTT (40 mg/kg, 24 h, dose level Low) was 22.7 s, the Bas (40 mg/kg, 24 h, dose level Low) was 0% and the Eos (40 mg/kg, 24 h, dose level Low) was 0.8%. The Fbg (40 mg/kg, 24 h, dose level Low) was 306 mg/dL, the Hb (40 mg/kg, 24 h, dose level Low) was 13.2 g/dL and the Ht (40 mg/kg, 24 h, dose level Low) was 40.2%. The Lym (40 mg/kg, 24 h, dose level Low) was 79.4%, the MCHC (40 mg/kg, 24 h, dose level Low) was 32.8% and the MCV (40 mg/kg, 24 h, dose level Low) was 64.5 fL. It also gave a Mono (40 mg/kg, 24 h, dose level Low) of 1.8%, a Neu (40 mg/kg, 24 h, dose level Low) of 17.2% and a PT (40 mg/kg, 24 h, dose level Low) of 15.3 s. It also gave a Plat (40 mg/kg, 24 h, dose level Low) of 115.3 x10_4/uL, an RBC (40 mg/kg, 24 h, dose level Low) of 623 x10_4/ul and a Ret (40 mg/kg, 24 h, dose level Low) of 7%. For the same molecule, the WBC (40 mg/kg, 24 h, dose level Low) was 91.1 x10_2/uL, the KIDNEY_L (40 mg/kg, 24 h, dose level Low) was 0.9 g and the KIDNEY_R (40 mg/kg, 24 h, dose level Low) was 1 g. It also gave a KIDNEY_TOTAL (40 mg/kg, 24 h, dose level Low) of 1.9 g, an LIVER (40 mg/kg, 24 h, dose level Low) of 10.5 g and an ALP (40 mg/kg, 24 h, dose level Low) of 1700.4 IU/L. It also gave an ALT (40 mg/kg, 24 h, dose level Low) of 47.2 IU/L, an AST (40 mg/kg, 24 h, dose level Low) of 71.8 IU/L and a BUN (40 mg/kg, 24 h, dose level Low) of 15.4 mg/dL. The CRE (40 mg/kg, 24 h, dose level Low) was 0.1 mg/dL, the Ca (40 mg/kg, 24 h, dose level Low) was 10.6 mg/dL and the Cl (40 mg/kg, 24 h, dose level Low) was 105.6 meq/L. The DBIL (40 mg/kg, 24 h, dose level Low) was 0 mg/dL, the IP (40 mg/kg, 24 h, dose level Low) was 8 mg/dL and the LDH (40 mg/kg, 24 h, dose level Low) was 156.2 IU/L. It also gave a Na (40 mg/kg, 24 h, dose level Low) of 142.8 meq/L, a PL (40 mg/kg, 24 h, dose level Low) of 147 mg/dL and an RALB (40 mg/kg, 24 h, dose level Low) of 3 g/dL. It also gave a TBIL (40 mg/kg, 24 h, dose level Low) of 0.002 mg/dL, a TC (40 mg/kg, 24 h, dose level Low) of 76.4 mg/dL and a TG (40 mg/kg, 24 h, dose level Low) of 96 mg/dL. For the same molecule, the TP (40 mg/kg, 24 h, dose level Low) was 5.4 g/dL, the gamma-GTP (40 mg/kg, 24 h, dose level Low) was 1.6 IU/L and the TERMINAL_BW [1] was 205.2 g. The APTT [1] was 23.3 s.
